Measured values as given in the supplement of paper PMC11208160.

Test: recombinant barcode read abundance after kanamycin selection (control-corrected) (log10(CPM+1)); higher = more efficient recombination; sequences stand for … in AGTGCAGAGAAAATCGGCCAGTTTTCTCTGCCTGCAGTCCGCATGCCGT…AGATTTATGCAGCGGACTGCCTTTCTCCCAAAGTGATAAACCGGACAGTATCATGGACCGGTTTTCCCGGTAATCCGTATTTGCAAGGTTGGTTTCACT; site = the 11-nt target
How it was run: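 In E. coli, a pooled library matched targets to IS621 bridge RNA target-binding loops and was introduced alongside a donor plasmid. Cells went onto chloramphenicol/ampicillin/kanamycin with 0.1 mM IPTG or onto chloramphenicol/ampicillin LB agar as control, in duplicate. Recombination efficiency, from recombinant-junction barcodes as counts per million, is averaged and control-corrected. It is reported as log10(CPM+1).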
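Also: IS621 recombinase and bridge RNA in Escherichia coli cells.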

Compared with “GGCACCGCTTGGGTTCTAACCTGTTGCCT (site GGCACTGCTAG)”, “GGCAGACCTTGGGTTCTAACCTGTTGCCT (site GGCAGACCTAG)” is higher in “recombinant barcode read abundance (log10)” value: 0.0527 for the first, 1 for the second.

Going from “GGCAGACCTTGGGTTCTAACCTGTTGCCT (site GGCAGTCCTCG)” to “GGCATATCTTGGGTTCTAACCTGTTGCCT (site AGTATATCTAG)”, the “recombinant barcode read abundance (log10)” value falls from 0.373 to 0.0602.

Going from “GGCATATCTTGGGTTCTAACCTGTTGCCT (site GGCATATCTAG)” to “GGCATCCCTTGGGTTCTAACCTGTTGCCT (site GGCATCCCTAG)”, the “recombinant barcode read abundance (log10)” value rises from 0.048 to 0.337.

“GGCATCCCTTGGGTTCTAACCTGTTGCCT (site GGCCTCCCTAG)” and “GGCATCCCTTGGGTTCTAACCTGTTGCCT (site GGCGTCCCTAG)” are within 0.2 log units of each other in “recombinant barcode read abundance (log10)” value: 0.258 for the first, 0.184 for the second.

First: GGCATCCCTTGGGTTCTAACCTGTTGCCT (site GGCTTCCCTAG)
Second: GGCCGGACTTGGGTTCTAACCTGTTGCCT (site GGCCGGACTAG)
The “recombinant barcode read abundance (log10)” value of the first is lower: 0.145 for the first, 0.937 for the second.

“GGCCGGACTTGGGTTCTAACCTGTTGCCT (site GGCCGGCCTAG)” and “GGCCGGACTTGGGTTCTAACCTGTTGCCT (site GGCCGGGCTAG)” are within 0.2 log units of each other in “recombinant barcode read abundance (log10)” value: 0.253 for the first, 0.112 for the second.

“GGCCGGACTTGGGTTCTAACCTGTTGCCT (site GGCCGGTCTAG)” and “GGCCGGGCTTGGGTTCTAACCTGTTGCCT (site GGCCGGACTAG)” are within 0.2 log units of each other in “recombinant barcode read abundance (log10)” value: 0.021 for the first, 0.143 for the second.

“GGCCGGGCTTGGGTTCTAACCTGTTGCCT (site GGCCGGCCTAG)” and “GGCCGGGCTTGGGTTCTAACCTGTTGCCT (site GGCCGGGCTAG)” are within 0.2 log units of each other in “recombinant barcode read abundance (log10)” value: 0.0912 for the first, 0.219 for the second.

“GGCCGGGCTTGGGTTCTAACCTGTTGCCT (site GGCCGGTCTAG)” and “GGCCGTCCTTGGGTTCTAACCTGTTGCAG (site ACCCGTCCTCT)” are within 0.2 log units of each other in “recombinant barcode read abundance (log10)” value: 0.0839 for the first, 0.184 for the second.

“GGCCGTCCTTGGGTTCTAACCTGTTGCAG (site GGCCGTCCTCT)” and “GGCGCCTCTTGGGTTCTAACCTGTTGCGC (site AATCTAACTAG)” are within 0.2 log units of each other in “recombinant barcode read abundance (log10)” value: 0.118 for the first, 0.139 for the second.

“GGCGCCTCTTGGGTTCTAACCTGTTGCGC (site GGCGCCTCTGC)” and “GGCGCGTCTTGGGTTCTAACCTGTTGCCT (site GGCGCATCTAG)” are within 0.2 log units of each other in “recombinant barcode read abundance (log10)” value: 0.777 for the first, 0.607 for the second.

Compared with “GGCGCGTCTTGGGTTCTAACCTGTTGCCT (site GGCGCGTCTAG)”, “GGCGTCACTTGGGTTCTAACCTGTTGCCT (site GGCGACCCTAG)” is lower in “recombinant barcode read abundance (log10)” value: 0.557 for the first, 0.111 for the second.

Going from “GGCGTCACTTGGGTTCTAACCTGTTGCCT (site GGCGTCACTAG)” to “GGCTAACCTTGGGTTCTAACCTGTTGCCT (site CATCGGACTTT)”, the “recombinant barcode read abundance (log10)” value falls from 1.24 to 0.0416.

First: GGCTAACCTTGGGTTCTAACCTGTTGCCT (site GGCTAACCTAG)
Second: GGCTACCCTTGGGTTCTAACCTGTTGCAA (site CTGGTATCTAA)
The “recombinant barcode read abundance (log10)” value of the first is higher: 1.33 for the first, 0.148 for the second.

Compared with “GGCTACCCTTGGGTTCTAACCTGTTGCAA (site GGCTACCCTTT)”, “GGCTAGACTTGGGTTCTAACCTGTTGCGG (site GGCTAGACTCC)” is higher in “recombinant barcode read abundance (log10)” value: 0.774 for the first, 1.43 for the second.

First: GGCTAGACTTGGGTTCTAACCTGTTGCGG (site GGCTCTACTCC)
Second: GGCTTCTCTTGGGTTCTAACCTGTTGCCT (site GGCTTCTCTAG)
The “recombinant barcode read abundance (log10)” value of the first is lower: 0.0457 for the first, 1.22 for the second.

“GGCTTCTCTTGGGTTCTAACCTGTTGCCT (site TGCCTCTCTAG)” and “GGGAACCCTTGGGTTCTAACCTGTTGCTA (site GGGAACCCTAA)” are within 0.2 log units of each other in “recombinant barcode read abundance (log10)” value: 0.0687 for the first, 0.147 for the second.

“GGGAACCCTTGGGTTCTAACCTGTTGCTA (site GGGAACCCTCA)” and “GGGAACCCTTGGGTTCTAACCTGTTGCTA (site GGGAACCCTGA)” are within 0.2 log units of each other in “recombinant barcode read abundance (log10)” value: 0.132 for the first, 0.0297 for the second.

“GGGAACCCTTGGGTTCTAACCTGTTGCTA (site GGGAACCCTTA)” and “GGGACCTCTTGGGTTCTAACCTGTTGCGG (site GGGACCTCTAC)” are within 0.2 log units of each other in “recombinant barcode read abundance (log10)” value: 1.29 for the first, 1.25 for the second.

Compared with “GGGACCTCTTGGGTTCTAACCTGTTGCGG (site GGGACCTCTCC)”, “GGGATGTCTTGGGTTCTAACCTGTTGCCT (site GAGATGTCTAG)” is lower in “recombinant barcode read abundance (log10)” value: 1.94 for the first, 0.444 for the second.

First: GGGATGTCTTGGGTTCTAACCTGTTGCCT (site GCGATGTCTAG)
Second: GGGATGTCTTGGGTTCTAACCTGTTGCCT (site GGGATGTCTAG)
The “recombinant barcode read abundance (log10)” value of the first is lower: 0.128 for the first, 2.04 for the second.

“GGGATGTCTTGGGTTCTAACCTGTTGCCT (site GTGATGTCTAG)” and “GGGCAGCCTTGGGTTCTAACCTGTTGCCT (site GGGCAACCTAC)” are within 0.2 log units of each other in “recombinant barcode read abundance (log10)” value: 0.211 for the first, 0.0939 for the second.

“GGGCAGCCTTGGGTTCTAACCTGTTGCCT (site GGGCAGCCTAG)” and “GGGCATCCTTGGGTTCTAACCTGTTGCTT (site GGGCATCCTAA)” are within 0.2 log units of each other in “recombinant barcode read abundance (log10)” value: 0.458 for the first, 0.652 for the second.

Going from “GGGCATCCTTGGGTTCTAACCTGTTGCTT (site GTGCACCCTAA)” to “GGGCCGGCTTGGGTTCTAACCTGTTGCCG (site AATGATTCTAC)”, the “recombinant barcode read abundance (log10)” value falls from 0.637 to 0.292.

First: GGGCCGGCTTGGGTTCTAACCTGTTGCCG (site GGGCCGGCTCG)
Second: GGGCCTGCTTGGGTTCTAACCTGTTGCCA (site CTCGACCCTAT)
The “recombinant barcode read abundance (log10)” value of the first is higher: 1.14 for the first, 0 for the second.

Compared with “GGGCCTGCTTGGGTTCTAACCTGTTGCCA (site GGGCCTGCTTG)”, “GGGCTGTCTTGGGTTCTAACCTGTTGCTT (site GGGCTGTCTAA)” is lower in “recombinant barcode read abundance (log10)” value: 1.18 for the first, 0.705 for the second.

First: GGGCTGTCTTGGGTTCTAACCTGTTGCTT (site GGGGTGTCTCA)
Second: GGGGAGCCTTGGGTTCTAACCTGTTGCTG (site GGGGAGCCTCA)
The “recombinant barcode read abundance (log10)” value of the first is lower: 0.37 for the first, 2.9 for the second.

Compared with “GGGGAGCCTTGGGTTCTAACCTGTTGCTG (site GGGGAGTCTAA)”, “GGGGATCCTTGGGTTCTAACCTGTTGCCT (site GAGGATCCTAG)” is higher in “recombinant barcode read abundance (log10)” value: 0.358 for the first, 0.679 for the second.

Going from “GGGGATCCTTGGGTTCTAACCTGTTGCCT (site GGGGATCCTAG)” to “GGGGCACCTTGGGTTCTAACCTGTTGCAT (site GGGGCACCTAA)”, the “recombinant barcode read abundance (log10)” value falls from 2.45 to 1.56.

Going from “GGGGCACCTTGGGTTCTAACCTGTTGCAT (site GGGGCACCTAC)” to “GGGGCACCTTGGGTTCTAACCTGTTGCAT (site GGGGCACCTAG)”, the “recombinant barcode read abundance (log10)” value rises from 0.357 to 0.598.

Compared with “GGGGCACCTTGGGTTCTAACCTGTTGCAT (site GGGGCACCTAT)”, “GGGGCCTCTTGGGTTCTAACCTGTTGCTT (site GGGGCATCTAA)” is lower in “recombinant barcode read abundance (log10)” value: 2.89 for the first, 0.481 for the second.

Compared with “GGGGCCTCTTGGGTTCTAACCTGTTGCTT (site GGGGCCTCTAA)”, “GGGGCCTCTTGGGTTCTAACCTGTTGCTT (site GGGGCGTCTAA)” is lower in “recombinant barcode read abundance (log10)” value: 2.59 for the first, 0.225 for the second.

“GGGGCCTCTTGGGTTCTAACCTGTTGCTT (site GGGGCTTCTAA)” and “GGGGCGGCTTGGGTTCTAACCTGTTGCCT (site GGGGCGACTAG)” are within 0.2 log units of each other in “recombinant barcode read abundance (log10)” value: 0.398 for the first, 0.489 for the second.

First: GGGGCGGCTTGGGTTCTAACCTGTTGCCT (site GGGGCGCCTAG)
Second: GGGGCGGCTTGGGTTCTAACCTGTTGCCT (site GGGGCGGCTAG)
The “recombinant barcode read abundance (log10)” value of the first is lower: 0.0428 for the first, 1.8 for the second.

“GGGGCGGCTTGGGTTCTAACCTGTTGCCT (site GGGGCGTCTAG)” and “GGGGCGTCTTGGGTTCTAACCTGTTGCCG (site GGGCAGTCTCG)” are within 0.2 log units of each other in “recombinant barcode read abundance (log10)” value: 0.242 for the first, 0.201 for the second.

Compared with “GGGGCGTCTTGGGTTCTAACCTGTTGCCG (site GGGGCGTCTCG)”, “GGGGCGTCTTGGGTTCTAACCTGTTGCCT (site GGGGCGACTAG)” is lower in “recombinant barcode read abundance (log10)” value: 1.63 for the first, 0.167 for the second.

Going from “GGGGCGTCTTGGGTTCTAACCTGTTGCCT (site GGGGCGCCTAG)” to “GGGGCGTCTTGGGTTCTAACCTGTTGCCT (site GGGGCGGCTAG)”, the “recombinant barcode read abundance (log10)” value falls from 0.426 to 0.172.

Going from “GGGGCGTCTTGGGTTCTAACCTGTTGCCT (site GGGGCGTCTAG)” to “GGGGCGTCTTGGGTTCTAACCTGTTGCTG (site GGGGCGTCTCA)”, the “recombinant barcode read abundance (log10)” value rises from 1.55 to 2.44.

“GGGGCGTCTTGGGTTCTAACCTGTTGCTG (site TCCATAACTAG)” and “GGGGCTTCTTGGGTTCTAACCTGTTGCCT (site GAGGCTTCTAG)” are within 0.2 log units of each other in “recombinant barcode read abundance (log10)” value: 0.175 for the first, 0.0126 for the second.

Compared with “GGGGCTTCTTGGGTTCTAACCTGTTGCCT (site GCGGCTTCTAG)”, “GGGGCTTCTTGGGTTCTAACCTGTTGCCT (site GGGGCTTCTAG)” is higher in “recombinant barcode read abundance (log10)” value: 0.207 for the first, 0.919 for the second.

“GGGGCTTCTTGGGTTCTAACCTGTTGCCT (site GTGGCTTCTAG)” and “GGGGTATCTTGGGTTCTAACCTGTTGCCT (site GCGGTATCTAG)” are within 0.2 log units of each other in “recombinant barcode read abundance (log10)” value: 0.245 for the first, 0.0929 for the second.

Going from “GGGGTATCTTGGGTTCTAACCTGTTGCCT (site GGGGTATCTAG)” to “GGGTAAACTTGGGTTCTAACCTGTTGCCT (site GGGTAAACTAG)”, the “recombinant barcode read abundance (log10)” value falls from 1.21 to 0.953.

First: GGGTAAACTTGGGTTCTAACCTGTTGCCT (site GGGTAATCTAG)
Second: GGGTAACCTTGGGTTCTAACCTGTTGCCT (site AGGTAACCTAG)
The “recombinant barcode read abundance (log10)” value of the first is higher: 0.702 for the first, 0 for the second.
